Data as given in patent publication US8999982B2, “Pharmaceutically active compounds as Axl inhibitors” (Lead Discovery Center GmbH, priority 2010, dated 2015).

Assays:
Axl [1] = target: T1, Axl (Homo sapiens (Human), UniProt P30530); assay: Cellular Axl phosphorylation assay; assay type: cell-based; details: HEK293 cells transfected with Axl cDNA, 1 hour incubation
Procedure, shortened: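 Transiently Axl-transfected HEK293 cells, with a vector-only negative control, were treated with compound for 1 hour on the day after medium change. Axl phosphorylation was quantified by mesoscale detection.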

Axl [2] = target: T1, Axl; assay: Axl binding assay
Experimental: Binding of the tracer to the kinase is detected using an EU-labeled anti-tag antibody. […] Binding of an inhibitor to the kinase competes for binding with the tracer, resulting in a loss of FRET-signal. At first a compound according to formula (I) was diluted in 20 mM Hepes pH 8.0, 1 mM DTT, 10 mM MgCl2 and 0.01% Brij35.

T1 sequence (P30530 26-894): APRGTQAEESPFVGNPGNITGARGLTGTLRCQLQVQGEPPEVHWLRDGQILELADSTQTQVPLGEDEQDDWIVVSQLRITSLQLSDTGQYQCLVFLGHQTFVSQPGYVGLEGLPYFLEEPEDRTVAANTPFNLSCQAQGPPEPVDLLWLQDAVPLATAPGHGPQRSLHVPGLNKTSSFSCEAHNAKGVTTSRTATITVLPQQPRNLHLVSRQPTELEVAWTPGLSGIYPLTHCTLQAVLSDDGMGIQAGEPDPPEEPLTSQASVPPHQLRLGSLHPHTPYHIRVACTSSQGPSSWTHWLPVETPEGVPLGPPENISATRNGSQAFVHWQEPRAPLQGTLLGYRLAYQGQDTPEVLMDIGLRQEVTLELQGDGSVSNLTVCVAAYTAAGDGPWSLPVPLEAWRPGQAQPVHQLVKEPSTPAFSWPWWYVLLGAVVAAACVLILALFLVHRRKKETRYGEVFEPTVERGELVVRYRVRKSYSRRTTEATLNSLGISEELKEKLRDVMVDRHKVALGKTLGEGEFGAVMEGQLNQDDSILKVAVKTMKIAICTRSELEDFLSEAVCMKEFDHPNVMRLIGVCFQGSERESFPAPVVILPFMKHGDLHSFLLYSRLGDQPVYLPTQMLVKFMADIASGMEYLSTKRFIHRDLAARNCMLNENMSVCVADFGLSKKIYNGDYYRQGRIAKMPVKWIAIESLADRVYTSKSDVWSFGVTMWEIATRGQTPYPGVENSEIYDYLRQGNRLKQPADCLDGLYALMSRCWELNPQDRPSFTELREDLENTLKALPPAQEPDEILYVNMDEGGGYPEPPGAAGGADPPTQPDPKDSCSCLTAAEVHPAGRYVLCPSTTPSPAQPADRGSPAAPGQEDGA

Row | IC50 (Axl [1]) [µM] | IC50 (Axl [2]) [µM] | Structure (SMILES)
1 | < 0.5 | < 0.5 | COc1cc2c(Oc3ccc(NC(=O)c4nc(-c5ccccc5)oc4C)cc3F)ccnc2cc1OCC1CCNCC1 [Example 80, N-[3-fluoro-4-[[6-methoxy-7-(4-piperidylmethoxy)-4-quinolyl]oxy]phenyl]-5-methyl-2-phenyl-oxazole-4-carboxamide]
2 | 0.5 to 5 | < 0.5 | COc1cc2c(Oc3ccc(NC(=O)c4csc(-c5ccccc5)n4)cc3F)ccnc2cc1OCC1CCNCC1 [Example 81, N-[3-fluoro-4-[[6-methoxy-7-(4-piperidylmethoxy)-4-quinolyl]oxy]phenyl]-2-phenyl-thiazole-4-carboxamide]
3 | < 0.5 | < 0.5 | CCOc1cn(-c2ccc(F)cc2C)nc1C(=O)Nc1ccc(Oc2ccnc3cc(OCC4CCN(CC)CC4)c(OC)cc23)c(F)c1 [Example 82, 4-ethoxy-N-[4-[[7-[(1-ethyl-4-piperidyl)methoxy]-6-methoxy-4-quinolyl]oxy]-3-fluoro-phenyl]-1-(4-fluoro-2-methyl-phenyl)pyrazole-3-carboxamide]
4 | < 0.5 | < 0.5 | CCOc1cn(-c2ccc(F)cc2C)nc1C(=O)Nc1ccc(Oc2ccnc3cc(OCC4CCN(CC(C)C)CC4)c(OC)cc23)c(F)c1 [Example 83, 4-ethoxy-N-[3-fluoro-4-[[7-[(1-isobutyl-4-piperidyl)methoxy]-6-methoxy-4-quinolyl]oxy]phenyl]-1-(4-fluoro-2-methyl-phenyl)pyrazole-3-carboxamide]
5 | < 0.5 | < 0.5 | CCOc1cn(-c2ccc(F)cc2)nc1C(=O)Nc1ccc(Oc2ccnc3cc(OC)c(OC)cc23)cn1 [Example 84, N-[5-[(6,7-dimethoxy-4-quinolyl)oxy]-2-pyridyl]-4-ethoxy-1-(4-fluorophenyl)pyrazole-3-carboxamide]
6 | < 0.5 | < 0.5 | CCOc1cn(-c2ccc(F)cc2C)nc1C(=O)Nc1ccc(Oc2ccnc3cc(OC)c(OC)cc23)cn1 [Example 85, N-[5-[(6,7-dimethoxy-4-quinolyl)oxy]-2-pyridyl]-4-ethoxy-1-(4-fluoro-2-methyl-phenyl)pyrazole-3-carboxamide]
7 | < 0.5 | < 0.5 | CCOc1cn(-c2ccc(F)cc2Cl)nc1C(=O)Nc1ccc(Oc2ccnc3cc(OC)c(OC)cc23)cn1 [Example 86, 1-(2-chloro-4-fluoro-phenyl)-N-[5-[(6,7-dimethoxy-4-quinolyl)oxy]-2-pyridyl]-4-ethoxy-pyrazole-3-carboxamide]
8 | < 0.5 | 0.5 to 5 | COc1cc2nccc(Oc3ccc(NC(=O)c4nn(-c5ccc(F)cc5)cc4CCN(C)C)nc3)c2cc1OC [Example 87, N-[5-[(6,7-dimethoxy-4-quinolyl)oxy]-2-pyridyl]-4-(2-dimethylaminoethyl)-1-(4-fluorophenyl)pyrazole-3-carboxamide]
9 | < 0.5 | < 0.5 | CCOc1cn(-c2ccc(OC)cc2C)nc1C(=O)Nc1ccc(Oc2ccnc3cc(OC)c(OC)cc23)cn1 [Example 89, N-(5-((6,7-dimethoxyquinolin-4-yl)oxy)pyridin-2-yl)-4-ethoxy-1-(4-methoxy-2-methylphenyl)-1H-pyrazole-3-carboxamide]
10 | < 0.5 | < 0.5 | CCOc1cn(-c2cccc([N+](=O)[O-])c2)nc1C(=O)Nc1ccc(Oc2ccnc3cc(OC)c(OC)cc23)c(F)c1 [Example 90, N-(4-((6,7-dimethoxyquinolin-4-yl)oxy)-3-fluorophenyl)-4-ethoxy-1-(3-nitrophenyl)-1H-pyrazole-3-carboxamide]
11 | < 0.5 | < 0.5 | CCOc1cn(-c2ccc(OC)cc2C)nc1C(=O)Nc1ccc(Oc2ccnc3cc(OC)c(OC)cc23)c(F)c1 [Example 91, N-(4-((6,7-dimethoxyquinolin-4-yl)oxy)-3-fluorophenyl)-4-ethoxy-1-(4-methoxy-2-methylphenyl)-1H-pyrazole-3-carboxamide]
12 | < 0.5 | < 0.5 | CCOc1cn(-c2cccc([N+](=O)[O-])c2)nc1C(=O)Nc1ccc(Oc2ccnc3cc(OC)c(OC)cc23)cn1 [Example 92, N-(5-((6,7-dimethoxyquinolin-4-yl)oxy)pyridin-2-yl)-4-ethoxy-1-(3-nitrophenyl)-1H-pyrazole-3-carboxamide]
13 | < 0.5 | < 0.5 | CCOc1cn(-c2ccc(F)cc2C)nc1C(=O)Nc1ccc(Oc2ccnc3cc(OC)c(OC)cc23)cc1OC [Example 94, N-(4-((6,7-dimethoxyquinolin-4-yl)oxy)-2-methoxyphenyl)-4-ethoxy-1-(4-fluoro-2-methylphenyl)-1H-pyrazole-3-carboxamide]
14 | 0.5 to 5 | < 0.5 | CCOc1cn(-c2ccc(F)cc2C)nc1C(=O)Nc1ccc(Oc2ccnc3cc(OC)c(OC)cc23)cc1C [Example 95, N-(4-((6,7-dimethoxyquinolin-4-yl)oxy)-2-methylphenyl)-4-ethoxy-1-(4-fluoro-2-methylphenyl)-1H-pyrazole-3-carboxamide]
15 | < 0.5 | < 0.5 | CCOc1cn(-c2ccc(F)c(OC)c2)nc1C(=O)Nc1ccc(Oc2ccnc3cc(OC)c(OC)cc23)c(F)c1 [Example 96, N-(4-((6,7-dimethoxyquinolin-4-yl)oxy)-3-fluorophenyl)-4-ethoxy-1-(4-fluoro-3-methoxyphenyl)-1H-pyrazole-3-carboxamide]
16 | < 0.5 | < 0.5 | CCOc1cn(-c2ccc(F)c(OC)c2)nc1C(=O)Nc1ccc(Oc2ccnc3cc(OC)c(OC)cc23)cn1 [Example 97, N-(5-((6,7-dimethoxyquinolin-4-yl)oxy)pyridin-2-yl)-4-ethoxy-1-(4-fluoro-3-methoxyphenyl)-1H-pyrazole-3-carboxamide]
17 | < 0.5 | 0.5 to 5 | CCOc1cn(-c2ccc([N+](=O)[O-])cc2)nc1C(=O)Nc1ccc(Oc2ccnc3cc(OC)c(OC)cc23)cn1 [Example 98, N-(5-((6,7-dimethoxyquinolin-4-yl)oxy)pyridin-2-yl)-4-ethoxy-1-(4-nitrophenyl)-1H-pyrazole-3-carboxamide]
18 | < 0.5 | < 0.5 | CCOc1cn(-c2ccc(N)cc2)nc1C(=O)Nc1ccc(Oc2ccnc3cc(OC)c(OC)cc23)cn1 [Example 99, 1-(4-aminophenyl)-N-(5-((6,7-dimethoxyquinolin-4-yl)oxy)pyridin-2-yl)-4-ethoxy-1H-pyrazole-3-carboxamide]
19 | < 0.5 | < 0.5 | COc1cc2c(Oc3ccc(NC(=O)c4nc(-c5ccccc5)cs4)nc3)ccnc2cc1OCC1CCNCC1 [Example 101, N-(5-((6-methoxy-7-(piperidin-4-ylmethoxy)quinolin-4-yl)oxy)pyridin-2-yl)-4-phenylthiazole-2-carboxamide]
20 | < 0.5 | < 0.5 | COc1cc2c(Oc3ccc(NC(=O)c4nc(Br)cs4)nc3)ccnc2cc1OCC1CCNCC1 [Example 102, 4-bromo-N-(5-((6-methoxy-7-(piperidin-4-ylmethoxy)quinolin-4-yl)oxy)pyridin-2-yl)thiazole-2-carboxamide]
21 | < 0.5 | < 0.5 | CCOc1cn(-c2ccc(F)cc2O)nc1C(=O)Nc1ccc(Oc2ccnc3cc(OC)c(OC)cc23)cn1 [Example 104, N-(5-((6,7-dimethoxyquinolin-4-yl)oxy)pyridin-2-yl)-4-ethoxy-1-(4-fluoro-2-hydroxyphenyl)-1H-pyrazole-3-carboxamide]
22 | < 0.5 | < 0.5 | CCOc1cn(-c2cccnc2)nc1C(=O)Nc1ccc(Oc2ccnc3cc(OC)c(OC)cc23)c(F)c1 [Example 105, N-(4-((6,7-dimethoxyquinolin-4-yl)oxy)-3-fluorophenyl)-4-ethoxy-1-(pyridin-3-yl)-1H-pyrazole-3-carboxamide]
